Measured values: patent publication US20220323406A1, “METHODS AND COMPOSITIONS FOR DIFFERENTIATING STEM CELLS” (Massachusetts Institute of Technology, priority 2019, published 2022)
Counter-ions that a name gives are not always drawn.

Experiments:
[1] = test system: ENR+CD organoids (ISC to Paneth cell differentiation); assay: Primary screen: basal (non-stimulated) lysozyme secretion LYZ.NS, 2.5-D 384-well ENR+CD organoid differentiation; format: cell-based, mouse
Source text: (§1) High-throughput screening.

[2] = test system: ENR+CD organoids (ISC to Paneth cell differentiation); assay: Primary screen: CCh-stimulated lysozyme secretion LYZ.S, 2.5-D 384-well ENR+CD organoid differentiation; format: cell-based, mouse; conditions: primary screen
Source text: as §1

ENR+CD organoids = assay: Primary screen: ATP (CellTiter-Glo 3D, CTG) cell number/viability, 2.5-D 384-well ENR+CD organoids; conditions: primary screen; for Z.CTG: standard z score;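 as to all read-outs here: compounds given at plating and again on day 3 over a 6-day differentiation from ENR+CV stem-cell-enriched precursors, ATP measured on day 6, plate median as control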
[3] = primary screen, dose 0.08 uM, standard z score
[4] = primary screen, dose 0.40 uM, standard z score
[5] = primary screen, dose 2.00 uM, standard z score
[6] = primary screen, dose 10.00 uM, standard z score
[7] = dose 0.08 uM, FC relative to plate median
[8] = dose 0.40 uM, FC relative to plate median
[9] = dose 2.00 uM, FC relative to plate median
[10] = dose 10.00 uM, FC relative to plate median
[11] = dose 0.08 uM, FC vs plate median
[12] = dose 0.40 uM, FC vs plate median
[13] = dose 2.00 uM, FC vs plate median
[14] = dose 10.00 uM, FC vs plate median

Compound	Dose.FC.LYZ.NS ([1]; primary screen, dose 0.08 uM) [log2 fold change]	Z.LYZ.NS (standard z score) ([1]; primary screen, dose 0.08 uM)	Dose.FC.LYZ.NS ([1]; primary screen, dose 0.40 uM) [log2 fold change]	Z.LYZ.NS (standard z score) ([1]; primary screen, dose 0.40 uM)	Dose.FC.LYZ.NS ([1]; primary screen, dose 2.00 uM) [log2 fold change]	Z.LYZ.NS (standard z score) ([1]; primary screen, dose 2.00 uM)	Dose.FC.LYZ.NS ([1]; primary screen, dose 10.00 uM) [log2 fold change]	Z.LYZ.NS (standard z score) ([1]; primary screen, dose 10.00 uM)	Dose.FC.LYZ.S ([2]; dose 0.08 uM) [log2 fold change]	Dose.FC.LYZ.S ([2]; dose 0.40 uM) [log2 fold change]	Dose.FC.LYZ.S ([2]; dose 2.00 uM) [log2 fold change]	Dose.FC.LYZ.S ([2]; dose 10.00 uM) [log2 fold change]	Dose.FC.CTG (ENR+CD organoids; dose 0.08 uM) [log2 fold change]	Z.CTG (standard z score) (ENR+CD organoids; dose 0.08 uM)	Dose.FC.CTG (ENR+CD organoids; dose 0.40 uM) [log2 fold change]	Z.CTG (standard z score) (ENR+CD organoids; dose 0.40 uM)	Dose.FC.CTG (ENR+CD organoids; dose 2.00 uM) [log2 fold change]	Z.CTG (standard z score) (ENR+CD organoids; dose 2.00 uM)	Dose.FC.CTG (ENR+CD organoids; dose 10.00 uM) [log2 fold change]	Z.CTG (standard z score) (ENR+CD organoids; dose 10.00 uM)	other results
CC(C)(C)c1cc(/C=C(\C#N)C(N)=S)cc(C(C)(C)C)c1O [Tyrphostin AG 879]	0.010	0.088	−0.078	−0.680	−0.080	−0.698	−0.110	−0.960	−0.083	−0.084	−0.051	−0.123	−0.347	−0.828	−0.238	−0.569	−0.232	−0.554	−0.368	−0.879	
COc1ccc2c(c1)c(C1=C(c3c[nH]c4ccccc34)C(=O)NC1=O)cn2CCCN(C)C [Go 6983]		−0.046		0.114		0.791		−0.798						0.050		−0.085		0.138		−0.433	Dose.FC.LYZ.NS (log2 fold change) ([1]; primary screen, dose 0.08 uM): −0.005; Dose.FC.LYZ.NS (log2 fold change) ([1]; primary screen, dose 0.40 uM): 0.013; Dose.FC.LYZ.NS (log2 fold change) ([1]; primary screen, dose 2.00 uM): 0.091; Dose.FC.LYZ.NS (log2 fold change) ([1]; primary screen, dose 10.00 uM): −0.092; Dose.FC.LYZ.S (log2 fold change) ([2]; dose 0.08 uM): 0.021; Dose.FC.LYZ.S (log2 fold change) ([2]; dose 0.40 uM): 0.007; Dose.FC.LYZ.S (log2 fold change) ([2]; dose 2.00 uM): −0.010; Dose.FC.LYZ.S (log2 fold change) ([2]; dose 10.00 uM): −0.073; Dose.FC.CTG (log2 fold change) (ENR+CD organoids; dose 0.08 uM): 0.021; Dose.FC.CTG (log2 fold change) (ENR+CD organoids; dose 0.40 uM): −0.036; Dose.FC.CTG (log2 fold change) (ENR+CD organoids; dose 2.00 uM): 0.058; Dose.FC.CTG (log2 fold change) (ENR+CD organoids; dose 10.00 uM): −0.181
CC(C)NCC(O)COc1cccc2ccccc12 (stereo not drawn) [Propranolol HCl]																					Dose.FC.LYZ.NS ([1]; primary screen, dose 0.08 uM, FC relative to plate median): 0.048 log2 fold change; Z.LYZ.NS [1, 3]: 0.418; Dose.FC.LYZ.NS ([1]; primary screen, dose 0.40 uM, FC relative to plate median): 0.074 log2 fold change; Z.LYZ.NS [1, 4]: 0.642; Dose.FC.LYZ.NS ([1]; primary screen, dose 2.00 uM, FC relative to plate median): 0.164 log2 fold change; Z.LYZ.NS [1, 5]: 1.427; Dose.FC.LYZ.NS ([1]; primary screen, dose 10.00 uM, FC relative to plate median): 0.032 log2 fold change; Z.LYZ.NS [1, 6]: 0.276; Dose.FC.LYZ.S [2, 7]: 0.173 log2 fold change; Dose.FC.LYZ.S [2, 8]: 0.204 log2 fold change; Dose.FC.LYZ.S [2, 9]: 0.091 log2 fold change; Dose.FC.LYZ.S [2, 10]: 0.040 log2 fold change; Dose.FC.CTG (ENR+CD organoids; [7]): 0.066 log2 fold change; Dose.FC.CTG (ENR+CD organoids; [8]): 0.054 log2 fold change; Dose.FC.CTG (ENR+CD organoids; [9]): 0.117 log2 fold change; Dose.FC.CTG (ENR+CD organoids; [10]): 0.168 log2 fold change
COc1ccc(CNCc2cccc3ccccc23)cc1.Cl [ML133 HCl]																					Z.LYZ.NS [1, 3]: 0.261; Z.LYZ.NS [1, 4]: −0.116; Z.LYZ.NS [1, 5]: 0.633; Z.LYZ.NS [1, 6]: −0.155; Dose.FC.LYZ.NS ([1]; primary screen; dose 0.08 uM; FC vs plate median): 0.030 log2 fold change; Dose.FC.LYZ.NS ([1]; primary screen; dose 0.40 uM; FC vs plate median): −0.013 log2 fold change; Dose.FC.LYZ.NS ([1]; primary screen; dose 2.00 uM; FC vs plate median): 0.073 log2 fold change; Dose.FC.LYZ.NS ([1]; primary screen; dose 10.00 uM; FC vs plate median): −0.018 log2 fold change; Dose.FC.LYZ.S [2, 11]: 0.062 log2 fold change; Dose.FC.LYZ.S [2, 12]: −0.018 log2 fold change; Dose.FC.LYZ.S [2, 13]: 0.087 log2 fold change; Dose.FC.LYZ.S [2, 14]: −0.014 log2 fold change; Z.CTG (ENR+CD organoids; dose 0.08 uM): −0.023; Z.CTG (ENR+CD organoids; dose 0.40 uM): −0.360; Z.CTG (ENR+CD organoids; dose 2.00 uM): −0.591; Z.CTG (ENR+CD organoids; dose 10.00 uM): −0.096; Dose.FC.CTG (ENR+CD organoids; [11]): −0.009 log2 fold change; Dose.FC.CTG (ENR+CD organoids; [12]): −0.151 log2 fold change; Dose.FC.CTG (ENR+CD organoids; [13]): −0.247 log2 fold change; Dose.FC.CTG (ENR+CD organoids; [14]): −0.040 log2 fold change
CC(C)OC(=O)C1=CN(C(=O)c2ccc(F)c(F)c2)CC(C)(C)c2c1[nH]c1ccccc21 [XL335]	0.175	1.523	−0.082	−0.711	−0.072	−0.625	−0.135	−1.176	0.093	−0.109	0.045	−0.180	0.124		−0.258		−0.259		−0.156		
CCC(COC(=O)c1cc(OC)c(OC)c(OC)c1)(c1ccccc1)N(C)C (stereo not drawn) [Trimebutine]	−0.014	−0.121	−0.019	−0.166	−0.202	−1.763	−0.214	−1.863	0.000	0.002	−0.277	−0.332	0.007		−0.202		−1.008		−1.066		
CCc1cc(Nc2nccc(-c3c(-c4ccc(OC)c(C(=O)Nc5c(F)cccc5F)c4)nc4ccccn34)n2)c(OC)cc1N1CCC(N2CCN(S(C)(=O)=O)CC2)CC1 [GSK1904529A]		0.890		0.977		−1.557		−1.419						0.484		−0.170		−1.361		−1.649	Dose.FC.LYZ.NS (log2 fold change) ([1]; primary screen, dose 0.08 uM): 0.102; Dose.FC.LYZ.NS (log2 fold change) ([1]; primary screen, dose 0.40 uM): 0.112; Dose.FC.LYZ.NS (log2 fold change) ([1]; primary screen, dose 2.00 uM): −0.179; Dose.FC.LYZ.NS (log2 fold change) ([1]; primary screen, dose 10.00 uM): −0.163; Dose.FC.LYZ.S (log2 fold change) ([2]; dose 0.08 uM): 0.133; Dose.FC.LYZ.S (log2 fold change) ([2]; dose 0.40 uM): −0.047; Dose.FC.LYZ.S (log2 fold change) ([2]; dose 2.00 uM): −0.225; Dose.FC.LYZ.S (log2 fold change) ([2]; dose 10.00 uM): −0.276; Dose.FC.CTG (log2 fold change) (ENR+CD organoids; dose 0.08 uM): 0.202; Dose.FC.CTG (log2 fold change) (ENR+CD organoids; dose 0.40 uM): −0.071; Dose.FC.CTG (log2 fold change) (ENR+CD organoids; dose 2.00 uM): −0.570; Dose.FC.CTG (log2 fold change) (ENR+CD organoids; dose 10.00 uM): −0.691
C[C@H]1COC2=C1C(=O)C(=O)c1c2ccc2c1CCCC2(C)C [Cryptotanshinone]	0.143		−0.120		−0.182		−0.288		0.156	−0.105	−0.288	−0.432	0.199		−0.027		−0.184		−0.541		Z.LYZ.NS ([1]; primary screen, standard z score, dose 0.08 uM): 1.243; Z.LYZ.NS ([1]; primary screen, standard z score, dose 0.40 uM): −1.047; Z.LYZ.NS ([1]; primary screen, standard z score, dose 2.00 uM): −1.585; Z.LYZ.NS ([1]; primary screen, standard z score, dose 10.00 uM): −2.506
